Results as given in patent US20230414775A1, “TUBULYSINS AND PROTEIN-TUBULYSIN CONJUGATES” (priority 2021, published 2023).
Like-named read-outs stand apart in the source and are kept apart here.

Key:
SK-BR-3 cells = test: SK-BR-3 anti-proliferation assay for payloads (CellTiter-Glo); format: cell-based; settings: Homo sapiens, free payload, 120-144 h, read-out: SKBR3
Procedure: The cell line used in the anti-proliferation assays was SK-BR-3, a human breast, adenocarcinoma (pleural effusion) cell line. The cells were grown in McCoy's 5a Medium+10% FBS. To run the assay for payloads, the cells (40 μL, 700 cells) were added to each well in a 384-well plate and incubated for 24 hours at 37° C. with 5% CO2. Then the cells were treated with test compounds at various concentrations using HPD300, and then normalize the DMSO to 0.5%. The control wells contain cells and the medium but lack the test compounds. The plates were incubated for 120 h at 37° C. with 5% CO2. To run the assay for ADCs and some key payloads, the cells (80 μL, 1000 cells) were added to each well in a 96-well plate and incubated for twenty-four hours at 37° C. with 5% CO2. Next, the ADCs or payloads were diluted with Opti-Mem with 0.1% BSA. The cells were treated with test compounds or ADCs (20 μL) at various concentrations in appropriate cell culture medium (total volume, 0.1 mL). The final concentration of DMSO was adjusted to 0.2% and the Opti-Mem with 0.1% BSA was adjusted to 5%. The control wells contained cells and the medium but lacked the test compounds. The plates were incubated for 144 h at 37° C. with 5% CO2. CTG reagent was then added to the wells (25 μL/384-well or 100 μL/96-well). After the plates were shaken for 10 min and then incubated for 10 min at room temperature, paste the clear bottom with white back seal and record luminescence with Envision. The inhibition % was calculated according to the following equation: inhibition %=[1-(assay-blank)/(control-blank)]×100.

HCT15 cells = test: HCT15 anti-proliferation / cell killing assay (CellTiter-Glo), with or without verapamil; format: cell-based, human; settings: Homo sapiens
Procedure: The cell line used in the anti-proliferation assays was HCT15, a human colon, colorectal carcinoma cell line. The HCT15 cells were grown in RPMI medium 1640+10% FBS. To run the assay, the cells (40 μL, 400 cells) were added to each well in a 384-well plate and incubated for twenty-four hours at 37° C. with 5% CO2. One hour before adding compounds, freshly dilute Verapamil to 0.2 mg/ml in ddH2O. Add 1 μL/well diluted Verapamil to Verapamil treatment wells and 1 μL/well ddH2O to the non-Verapamil treatment wells. Return plates to the incubator at 37° C. with 5% CO2. Then the cells were treated with test compounds at various concentrations using HPD300, and then normalize the DMSO to 0.5%. The control wells contained cells and the medium but lack the test compounds. The plates were incubated for 120 hours at 37° C. with 5% CO2. CTG reagent was then added to the wells (25 μL). After the plates were shaken for 10 min and then incubated for 10 min at room temperature, paste the clear bottom with white back seal and record luminescence with Envision. The inhibition % was calculated according to the following equation: inhibition %=[1−(assay-blank)/(control-blank)]×100.

[1] = HCT15 cells, no verapamil, 120 h (5 days), read-out: HCT-15
[2] = HCT-15, HCT15 cells pre-treated with verapamil, 120 h, read-out: HCT-15 with verapamil

| SMILES | IC50 (SK-BR-3 cells) [nM] | IC50 (HCT15 cells; [1]) [nM] | IC50 (HCT15 cells; [2]) [nM] |
| --- | --- | --- | --- |
| CCCCCCN(C(=O)[C@@H](NC(=O)[C@@]1(C)CCCN1CCN)[C@@H](C)CC)[C@H](C[C@@H](OC(C)=O)c1nc(C(=O)N[C@@H](Cc2ccc(O)cc2)CC(C)(C)C(=O)O)cs1)C(C)C (mixture of isomers) [PA5, (S)-4-(2-((1RS,3RS)-1-acetoxy-3-((2SR,3SR)-2-((R)-1-(2-aminoethyl)-2-methylpyrrolidine-2-carboxamido)-N-hexyl-3-methylpentanamido)-4-methylpentyl)thiazole-4-carboxamido)-5-(4-hydroxyphenyl)-2,2-dimethylpentanoic acid] | 18.3 | > 100 | 15.9 |
| CCCCCCN(C(=O)[C@@H](NC(=O)[C@H]1CCCCN1)[C@@H](C)CC)[C@H](C[C@@H](OC(C)=O)c1nc(C(=O)N[C@@H](Cc2ccc(NCC(=O)O)cc2)CC(C)(C)C(=O)O)cs1)C(C)C (mixture of isomers) [PA17, Rac-(R)-4-(2-((1S,3S)-1-acetoxy-3-((2R,3R)—N-hexyl-3-methyl-2-((S)-piperidine-2-carboxamido)pentanamido)-4-methylpentyl)thiazole-4-carboxamido)-5-(4-((carboxymethyl)amino)phenyl)-2,2-dimethylpentanoic acid] | 0.131 | 1.39 | 0.09 |
| CCCCCCN(C(=O)[C@@H](NC(=O)[C@H]1CCCCN1)[C@@H](C)CC)[C@H](C[C@@H](OCCCO)c1nc(C(=O)N[C@@H](Cc2ccc(NCC(=O)O)cc2)CC(C)(C)C(=O)O)cs1)C(C)C (mixture of isomers) [PA23, Rac-(R)-5-(4-((carboxymethyl)amino)phenyl)-4-(2-((1S,3S)-3-((2R,3R)—N-hexyl-3-methyl-2-((S)-piperidine-2-carboxamido)pentanamido)-1-(3-hydroxypropoxy)-4-methylpentyl)thiazole-4-carboxamido)-2,2-dimethylpentanoic acid] | 9.35 | > 1000 | > 1000 |
| CCCCCCN(C(=O)[C@@H](NC(=O)[C@H]1CCCCN1C)[C@@H](C)CC)[C@H](C[C@@H](OC(=O)NCCOCCOCCO)c1nc(C(=O)N[C@@H](Cc2ccc(N)c(F)c2)CC(C)(C)C(=O)O)cs1)C(C)C (mixture of isomers) [PA25, (S)-5-(4-amino-3-fluorophenyl)-4-(2-((3RS,6SR,8SR)-3-((RS)-sec-butyl)-5-hexyl-19-hydroxy-6-isopropyl-1-((R)-1-methylpiperidin-2-yl)-1,4,10-trioxo-9,14,17-trioxa-2,5,11-triazanonadecan-8-yl)thiazole-4-carboxamido)-2,2-dimethylpentanoic acid] | 1.6 | 0.477 | 0.158 |
| CCCCCCN(C(=O)[C@@H](NC(=O)[C@H]1CCCCN1C)[C@@H](C)CC)[C@H](C[C@@H](OC(C)=O)c1nc(C(=O)N[C@@H](Cc2ccc(NCC(N)=O)cc2)CC(C)(C)C(=O)O)cs1)C(C)C (racemic) [PA18, Rac-(R)-4-(2-((1S,3S)-1-acetoxy-3-((2R,3R)—N-hexyl-3-methyl-2-((S)-1-methylpiperidine-2-carboxamido)pentanamido)-4-methylpentyl)thiazole-4-carboxamido)-acid] | 0.067 | 0.3 | 0.131 |
| CCCCCCN(C(=O)[C@@H](NC(=O)[C@H]1CCCCN1C)[C@@H](C)CC)[C@H](C[C@@H](OC(C)=O)c1nc(C(=O)N[C@@H](Cc2ccc(N(CCO)C(=O)CN)cc2)CC(C)(C)C(=O)O)cs1)C(C)C (racemic) [PA19, Rac-(R)-4-(2-((1S,3S)-1-acetoxy-3-((2R,3R)—N-hexyl-3-methyl-2-((S)-1-methylpiperidine-2-carboxamido)pentanamido)-4-methylpentyl)thiazole-4-carboxamido)-acid] | 1.84 | 10.8 | 1.8 |
| CCCCCCN(C(=O)[C@@H](NC(=O)[C@H]1CCCCN1C)[C@@H](C)CC)[C@H](C[C@@H](OC(C)=O)c1nc(C(=O)N[C@@H](Cc2ccc(N)cc2)CC(C)(C)C(=O)NCC(=O)O)cs1)C(C)C (racemic) [PA29, Rac-((R)-4-(2-((1S,3S)-1-acetoxy-3-((2R,3R)—N-hexyl-3-methyl-2-((S)-1-methylpiperidine-2-carboxamido)pentanamido)-4-methylpentyl)thiazole-4-carboxamido)-5-(4-aminophenyl)-2,2-dimethylpentanoyl)glycine] | 1.47 | 97.1 | 9.7 |
| CCCCCCN(C(=O)[C@@H](NC(=O)[C@@]1(C)CCCN1)[C@@H](C)CC)[C@H](C[C@@H](OC(C)=O)c1nc(C(=O)N[C@@H](Cc2ccc(O)cc2)CC(C)(C)C(=O)O)cs1)C(C)C [Compound P22, reference compound] | 0.087 | 0.265 | 0.078 |
| CCCCCCN(C(=O)[C@@H](NC(=O)[C@H]1CCCCN1C)[C@@H](C)CC)[C@H](C[C@@H](OC(C)=O)c1nc(C(=O)N[C@@H](Cc2ccc(NC(=O)CN)cc2)CC(C)(C)C(=O)O)cs1)C(C)C [Compound P28, reference compound] | 0.039 | 0.172 | 0.107 |
| CCCCCCN(C(=O)[C@@H](NC(=O)[C@@]1(C)CCCN1C(=O)CN)[C@@H](C)CC)[C@H](C[C@@H](OC(C)=O)c1nc(C(=O)N[C@@H](Cc2ccc(N)c(F)c2)CC(C)(C)C(=O)O)cs1)C(C)C [PA1, (4S)-4-({2-[(1R,3R)-1-(acetyloxy)-3-[(2S,3S)-2-{[(2R)-1-(2-aminoacetyl)-2-methylpyrrolidin-2-yl]formamido}-N-hexyl-3-methylpentanamido]-4-methylpentyl]-1,3-thiazol-4-yl}formamido)-5-(4-amino-3-fluorophenyl)-2,2-dimethylpentanoic acid] | – | > 100 | > 100 |
| CCCCCCN(C(=O)[C@@H](NC(=O)[C@@]1(C)CCCN1C(=O)CN)[C@@H](C)CC)[C@H](C[C@@H](OC(C)=O)c1nc(C(=O)N[C@@H](Cc2ccc(O)cc2)CC(C)(C)C(=O)O)cs1)C(C)C [PA2, (4S)-4-({2-[(1R,3R)-1-(acetyloxy)-3-[(2S,3S)-2-{[(2R)-1-(2-aminoacetyl)-2-methylpyrrolidin-2-yl]formamido}-N-hexyl-3-methylpentanamido]-4-methylpentyl]-1,3-thiazol-4-yl}formamido)-5-(4-hydroxyphenyl)-2,2-dimethylpentanoic acid] | – | > 100 | – |
| C#CCCCON(C(=O)[C@@H](NC(=O)[C@@]1(C)CCCN1CCO)[C@@H](C)CC)[C@H](C[C@@H](OC(C)=O)c1nc(C(=O)N[C@@H](Cc2ccc(N)cc2)CC(C)(C)C(=O)O)cs1)C(C)C [PA3, (4S)-4-({2-[(1R,3R)-1-(acetyloxy)-3-[(2S,3S)-2-{[(2R)-1-(2-hydroxyethyl)-2-methylpyrrolidin-2-yl]formamido}-3-methyl-N-(pent-4-yn-1-yloxy)pentanamido]-4-methylpentyl]-1,3-thiazol-4-yl}formamido)-5-(4-aminophenyl)-2,2-dimethylpentanoic acid] | 1.46 | 7.7 | 0.741 |
| CCCCCCN(C(=O)[C@@H](NC(=O)[C@H]1CCCCN1CCN)[C@@H](C)CC)[C@H](C[C@@H](OCC)c1nc(C(=O)N[C@@H](Cc2ccc(O)cc2)CC(C)(C)C(=O)O)cs1)C(C)C [PA4, (S)-4-(2-((1R,3R)-3-((2S,3S)-2-((R)-1-(2-aminoethyl)piperidine-2-carboxamido)-N-hexyl-3-methylpentanamido)-1-ethoxy-4-methylpentyl)thiazole-4-carboxamido)-5-(4-hydroxyphenyl)-2,2-dimethylpentanoic acid] | > 1 | 85 | 6.19 |
| CCCCCCN(C(=O)[C@@H](NC(=O)[C@@]1(C)CCCN1CCO)[C@@H](C)CC)[C@H](C[C@@H](OC(C)=O)c1nc(C(=O)N[C@@H](Cc2ccc(N)cc2)CC(C)(C)C(=O)O)cs1)C(C)C [PA6, (4S)-4-({2-[(1R,3R)-1-(acetyloxy)-3-[(2S,3S)—N-hexyl-2-{[(2R)-1-(2-hydroxyethyl)-2-methylpyrrolidin-2-yl]formamido}-3-methylpentanamido]-4-methylpentyl]-1,3-thiazol-4-yl}formamido)-5-(4-aminophenyl)-2,2-dimethylpentanoic acid] | 0.514 | 3.27 | 0.62 |
